Reference: publication PMC9267097, “Synthesis, In Vitro, and Computational Studies of PTP1B Phosphatase Inhibitors Based on Oxovanadium(IV) and Dioxovanadium(V) Complexes” (International Journal of Molecular Sciences, 2022)

Legend:
PTP1B phosphatase = target: T1, PTP1B phosphatase (Homo sapiens, UniProt P18031); test: Recombinant PTP1B assay (pNPP substrate); format: biochemical; details: for Ki: calculated as Ki = IC50/(S/Km + 1), S 1 mM, Km 0.7 mM, competitive type assumed from docking, read-out: Ki ± SD; for inhibition of PTP1B: concentration range 39.063 to 625 nM; for IC50: recombinant PTP1B 10 nM, 1 mM pNPP, 37 °C, HEPES pH 7.4; for inhibitory effect on PTP1B: 78.125 nM (lowest statistically significant concentration)
T1 construct: purchased Cayman Chemical, Ann Arbor, MI, USA
T1 sequence (P18031 1-435): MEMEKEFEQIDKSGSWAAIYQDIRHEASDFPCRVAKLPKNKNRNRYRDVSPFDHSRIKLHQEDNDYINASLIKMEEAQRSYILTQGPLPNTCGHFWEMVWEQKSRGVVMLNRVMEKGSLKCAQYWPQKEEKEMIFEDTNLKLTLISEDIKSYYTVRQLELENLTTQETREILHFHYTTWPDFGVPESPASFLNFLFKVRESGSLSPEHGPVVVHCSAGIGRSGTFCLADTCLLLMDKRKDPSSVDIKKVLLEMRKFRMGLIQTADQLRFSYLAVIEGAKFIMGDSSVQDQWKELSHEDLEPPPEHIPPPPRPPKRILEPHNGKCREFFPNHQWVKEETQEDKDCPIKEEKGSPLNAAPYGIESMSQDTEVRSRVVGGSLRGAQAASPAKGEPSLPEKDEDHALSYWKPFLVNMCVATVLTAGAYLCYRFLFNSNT
Experimental: The experiment was carried out on 96-well plates. The final concentration of PTP1B phosphatase in the reaction samples was […] (10 nM). […] The enzyme activities of PTP1B phosphatase were evaluated at 37 °C using 1 mM chromogenic substrate para-nitrophenyl phosphate (pNPP) in 10 mM HEPES buffer pH 7.4. The increase in absorbance (due to the formation of para-nitrophenols) is linearly proportional to the concentration of enzyme activity (with excessive substrate, i.e., zero-order kinetics) and was measured at 405 nm using DigiRead Communication Software (version 1.2.0.2., Dan Kittrich, Asys Hitech GmbH, Eugendorf, Austria) on the Jupiter microplate reader (Biogenet, Józefów, Poland). Data were expressed as the percentage of untreated enzyme (control).

[1] = cited from earlier work; for equivalents of L-ascorbic acid: antioxidant activity towards superoxide radical anion
[2] = tested on: MDA-MB-231 breast cancer cell line; test: Cell viability assay (MTT); format: cell-based; details: 24 h
Experimental: (§1) The MCF-7 and MDA-MB-231 breast cancer cell lines and the human keratinocyte HaCaT cell line were obtained from the American Type Culture Collection (ATCC, Manassas, VA, USA). Dulbecco’s modified eagle medium supplemented with 10% fetal bovine serum (FBS) and 1% penicillin/streptomycin was used to cultivate the cell lines. The cells were cultured at 37 °C in a 5% CO2 atmosphere.
(§2) According to the general protocol, a cell viability assay (MTT assay) was performed. […] The chemicals were dissolved in a growth medium containing 1% penicillin/streptomycin. After 24 h, 0.5 mg/mL of MTT solution (3-[4,5-dimethylthiazol-2-yl]-2,5-diphenyl-tetrazolium bromide) was added. 100 µL of DMSO was added to each well once the purple precipitate was clearly visible under the microscope. A microplate reader (Biogenet, Jozefow, Poland) and DigiRead Communication Software were used to measure the absorbance at 492 nm (Asys Hitech GmbH, Eugendorf, Austria). Data were expressed as the percentage of untreated cells (control).

[3] = tested on: human keratinocyte HaCaT cell line; test: Cell viability assay (MTT); format: cell-based; details: 24 h
Experimental: as §1, §2

[4] = tested on: MCF-7 breast cancer cell line; test: Cell viability assay (MTT); format: cell-based; details: 24 h
Experimental: as §1, §2

| Compound | Ki (PTP1B phosphatase) | inhibition of PTP1B (PTP1B phosphatase) | IC50 (PTP1B phosphatase) | cell viability (% of control) ([2]; MDA-MB-231, 25 µM) | cell viability (% of control) ([2]; MDA-MB-231, 50 µM) | cell viability (% of control) ([2]; MDA-MB-231, 100 µM) | inhibitory effect on PTP1B (PTP1B phosphatase) | equivalents of L-ascorbic acid [1] | also measured |
| --- | --- | --- | --- | --- | --- | --- | --- | --- | --- |
| O.O=C1[O][V-](=[O])(=[O])[O]C(=O)c2cccc1n2.c1ccc(-c2cccc[nH+]2)cc1 [Compound 5, [VOO(dipic)](2-phepyH)·H2O] | 66.7 ± 3.3 nM | 38–68% | 167 ± 8 nM |  |  |  |  |  | calculated equivalent towards L-ascorbic acid ([1]; antioxidant activity towards superoxide anion radicals): 0.68 |
| O.O.O=C1CNCC(=O)[O][V](=[O])[O]1.c1ccc(-c2ccccn2)nc1 [Compound 3, [VO(ida)(bipy)]·2 H2O] | 221 ± 19.1 nM |  | 543 ± 48.4 nM | 76% | 55% | 46% | 25% | 5.43 |  |
| O.O=C([O-])c1cccc(C(=O)[O-])n1.[O]=[V+2].c1ccc(-c2ccccn2)nc1 [Compound 2, [VO(dipic)(bipy)]·H2O] | 173 ± 17.2 nM |  | 426 ± 37.1 nM | 65% | 56% | 44% | 19% | 0.936 |  |
| [Na+].[Na+].[Na+].[O]=[V]([O-])([O-])[O-] [Sodium orthovanadate, reference compound] |  | 31–67% |  |  |  |  |  |  | inhibition of enzymatic activity of PTP1B (in words) (PTP1B phosphatase; complexes and orthovanadate 39.0625 nM to 5 µM, ligands 500 nM to 5 µM): inhibited the enzymatic activity of PTP1B phosphatase in a concentration-dependent manner |
| O.O.O.O.O=C([O-])c1cccc(C(=O)[O-])n1.[O]=[V+2] [Compound 1, [VO(dipic)(H2O)2]·2 H2O] | 256 ± 15.3 nM |  | 628 ± 39.1 nM |  |  |  | 17% | 2.359 | cytotoxic effect ([2]; MDA-MB-231, 50 µM): 25%; cytotoxic effect (in words) ([3]; 50 µM): no cytotoxic effect; effect on cell growth (in words) ([3]; low concentrations): improved cell growth at low concentrations |
| COc1ccnc(-c2cc(OC)ccn2)c1.O.O.O=C([O-])c1cccc(C(=O)[O-])n1.[O]=[V+2] [Compound 4] | 74.2 ± 4.1 nM | 31–67% | 185 ± 9.8 nM |  |  |  |  |  | cell viability (% of control) ([4]; MCF-7, 25 µM): 86%; cell viability (% of control) ([4]; MCF-7, 50 µM): 61%; cell viability (% of control) ([4]; MCF-7, 100 µM): 53% |
